Reference: patent US9345776B2, “Biodegradable polymers with sulfenamide bonds for drug delivery applications” (The University of Iowa Research Foundation, priority 2011, dated 2016)

Columns and labels:
[1] = Solubility in D2O; type: physicochemical
[2] = pKa; type: physicochemical; details: inferred from partial protonation by benzoic acid in CD3OD
[3] = Degradation of molecule C under neutral conditions, monitored by 1H NMR; type: physicochemical
Experimental: Kinetics of the degradation of molecule C under neutral conditions (FIG. 2a). Molecule C (363.2 mg, 1.53 mmol) was dissolved in 3.3 mL of CD3OD, from which 0.5 mL (55.1 mg, 232 μmol) was transferred to a NMR tube. After adding an additional 0.5 mL of CD3OD, ^1H NMR spectra were recorded at room temperature every few days. After 33 days, 15% of molecule C degraded to yield N-benzylmethylamine.
This procedure was also followed but the NMR tube was added to a heat bath at 40° C.
For the kinetics in C6D6 at room temperature, a solution of molecule C (33.9 mg, 143 μmol) in 0.7 mL of C6D6 was added to a NMR tube and ^1H NMR spectra were recorded every few days for 30 days.

[4] = Degradation of molecule C with acid in CD3OD, monitored by 1H NMR; type: physicochemical
Experimental: […] Molecule C (103.5 mg, 436 μmol) was dissolved in 0.94 mL of CD3OD and 0.5 mL (55.1 mg, 232 μmol) was transferred to a NMR tube. […] […] This reaction was too rapid to monitor the kinetics.

[5] = pH=7.5, 37° C.; cited from earlier work

solubility in D2O [1]	1H NMR spectrum of molecule C (stability in aprotic solvent) ([3]; C6D6, after 30 days)	degradation of molecule C ([3]; C6D6, room temperature, 30 days)	degradation of molecule C ([3]; CD3OD, 40° C., 33 days)	degradation of molecule C ([3]; CD3OD, room temperature, 33 days, no acid)	degradation of molecule C ([4]; five equivalents of benzoic acid, 4 min)	degradation of molecule C ([4]; two molar equivalents of p-toluenesulfonic acid, within four minutes)	degradation of molecule C ([4]; two molar equivalents of trifluoroacetic acid, within four minutes)	Compound	pKa of the protonated sulfenamide [2]	half-life of the decomposition [5]
not soluble	unchanged	< 3%	27%	15%	51%	> 90%	> 90%	CCCCCCSNCCc1ccccc1 [Molecule C, N-Benzylmethyl-hexanesulfenamide]	approximately the same pKa as benzoic acid	
								C=CCS[S+]([O-])CC=C (stereo not shown) [allicin]		approximately 2 days
